Assay results taken from patent US8541418B2, “Inhibitors of polo-like kinase” (Elan Pharmaceutical, Inc., priority 2009, dated 2013).
Like-named read-outs stand apart in the source and are kept apart here.

Legend:
Type in all cases: biochemical
PLK3 = PLK3 (Homo sapiens, UniProt Q9H4B4); assay: PLK TR-FRET peptide assay, PLK3; conditions: GST-PLK3, 15 min reaction, read-out: Plk3 IC50
PLK1 = PLK1 (Homo sapiens, UniProt P53350); assay: PLK TR-FRET peptide assay, PLK1; conditions: GST-PLK1, 60 min reaction
Chain of PLK1 (P53350 whole entry): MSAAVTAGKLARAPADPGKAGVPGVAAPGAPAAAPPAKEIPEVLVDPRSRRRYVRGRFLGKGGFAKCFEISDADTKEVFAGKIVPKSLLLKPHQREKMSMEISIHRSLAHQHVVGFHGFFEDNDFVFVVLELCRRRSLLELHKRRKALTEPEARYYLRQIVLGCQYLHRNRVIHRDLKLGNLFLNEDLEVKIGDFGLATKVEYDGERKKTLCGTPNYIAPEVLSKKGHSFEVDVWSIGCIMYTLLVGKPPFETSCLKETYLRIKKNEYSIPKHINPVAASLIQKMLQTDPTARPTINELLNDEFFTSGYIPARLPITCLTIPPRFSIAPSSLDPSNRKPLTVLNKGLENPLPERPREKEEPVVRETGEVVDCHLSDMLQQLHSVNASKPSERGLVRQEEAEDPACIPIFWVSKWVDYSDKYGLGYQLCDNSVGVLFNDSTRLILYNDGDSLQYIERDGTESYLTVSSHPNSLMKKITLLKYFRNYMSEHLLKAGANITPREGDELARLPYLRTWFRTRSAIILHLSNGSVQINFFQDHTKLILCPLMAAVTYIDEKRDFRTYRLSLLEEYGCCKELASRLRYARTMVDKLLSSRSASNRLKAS

PLK2 = PLK2 (Homo sapiens, UniProt Q9NYY3); assay: PLK TR-FRET peptide assay, PLK2; conditions: for IC50: read-out: Plk2 IC50
Chain of PLK2 (Q9NYY3 whole entry): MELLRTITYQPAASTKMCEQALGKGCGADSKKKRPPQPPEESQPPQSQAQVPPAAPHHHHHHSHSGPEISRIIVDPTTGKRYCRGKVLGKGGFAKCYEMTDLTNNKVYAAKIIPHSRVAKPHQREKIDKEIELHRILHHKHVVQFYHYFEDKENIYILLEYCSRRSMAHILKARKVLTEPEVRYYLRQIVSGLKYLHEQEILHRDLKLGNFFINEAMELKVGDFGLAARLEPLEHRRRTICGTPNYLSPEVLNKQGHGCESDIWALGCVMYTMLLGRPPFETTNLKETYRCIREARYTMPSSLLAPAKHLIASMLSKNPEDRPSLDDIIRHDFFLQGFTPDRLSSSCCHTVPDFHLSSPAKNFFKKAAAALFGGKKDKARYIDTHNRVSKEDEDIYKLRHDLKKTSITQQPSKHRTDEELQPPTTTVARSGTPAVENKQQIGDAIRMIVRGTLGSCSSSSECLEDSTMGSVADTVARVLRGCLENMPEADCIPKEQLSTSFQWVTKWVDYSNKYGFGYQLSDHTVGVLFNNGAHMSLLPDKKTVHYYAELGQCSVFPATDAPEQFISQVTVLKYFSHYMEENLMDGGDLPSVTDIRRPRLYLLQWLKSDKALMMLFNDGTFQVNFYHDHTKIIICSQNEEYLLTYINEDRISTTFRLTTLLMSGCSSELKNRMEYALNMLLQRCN

[1] = PLK TR-FRET peptide assay, GST-PLK2, 60 min reaction

Chain of PLK3 (Q9H4B4 whole entry): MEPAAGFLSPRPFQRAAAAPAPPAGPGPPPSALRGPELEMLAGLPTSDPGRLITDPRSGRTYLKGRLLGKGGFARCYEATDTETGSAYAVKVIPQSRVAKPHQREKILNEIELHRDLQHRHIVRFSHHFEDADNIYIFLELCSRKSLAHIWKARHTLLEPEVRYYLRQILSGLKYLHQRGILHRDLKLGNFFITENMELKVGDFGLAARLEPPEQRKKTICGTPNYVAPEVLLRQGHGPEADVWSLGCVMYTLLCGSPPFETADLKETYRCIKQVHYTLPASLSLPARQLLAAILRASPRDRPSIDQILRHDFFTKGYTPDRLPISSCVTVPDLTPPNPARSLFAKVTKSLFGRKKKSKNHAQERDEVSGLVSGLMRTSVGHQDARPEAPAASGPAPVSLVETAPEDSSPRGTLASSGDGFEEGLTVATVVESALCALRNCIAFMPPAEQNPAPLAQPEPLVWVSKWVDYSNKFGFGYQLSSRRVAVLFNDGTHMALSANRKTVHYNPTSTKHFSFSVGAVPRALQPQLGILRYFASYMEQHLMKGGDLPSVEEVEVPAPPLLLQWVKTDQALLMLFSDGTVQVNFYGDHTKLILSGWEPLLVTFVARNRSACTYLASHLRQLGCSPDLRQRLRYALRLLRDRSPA

Row | Compound | IC50 (PLK3) [µM] | IC50 (PLK1) [µM] | IC50 (PLK2; [1]) [µM] | relative PLK2 activity of the enantiomers (PLK2; compared with the opposite enantiomer) | IC50 (PLK2) [µM]
1 | CC[C@@H]1C(=O)N(C)c2cnc(-c3ccncc3NC(=O)OC)nc2N1C(C)C [Example 117, (R)-methyl 4-(7-ethyl-8-isopropyl-5-methyl-6-oxo-5,6,7,8-tetrahydropteridin-2-yl)pyridin-3-ylcarbamate] | > 50 | 1 to 10 | 1 to 10 | – | –
2 | CC[C@@H]1C(=O)N(C)c2cnc(-c3ccncc3NC(=O)OC(C)(C)C)nc2N1C(C)C [Example 94, (R)-tert-butyl 4-(7-ethyl-8-isopropyl-5-methyl-6-oxo-5,6,7,8-tetrahydropteridin-2-yl)pyridin-3-ylcarbamate] | > 50 | 10 to 50 | 1 to 10 | – | –
3 | [2H]C([2H])([2H])N1C(=O)C(C([2H])([2H])C([2H])([2H])[2H])N(C([2H])(C([2H])([2H])[2H])C([2H])([2H])[2H])c2nc(-n3ccnc3-c3ccc(OC(F)(F)F)cc3)ncc21 (stereo not shown) [Example 170, 7-perdeuteroethyl-8-perdeuteroisopropyl-5-trideuteromethyl-2-(2-(4-(trifluoromethoxy)phenyl)-1H-imidazol-1-yl)-7,8-dihydropteridin-6(5H)-one] | > 50 | 10 to 50 | < 1 | – | –
4 | CC[C@]12CCCCN1c1nc(-n3ccnc3-c3ccccc3)ncc1N(C)C2=O [Example 263, (R)-6a-ethyl-5-methyl-2-(2-phenyl-1H-imidazol-1-yl)-7,8,9,10-tetrahydro-5H-pyrido[2,1-h]pteridin-6(6aH)-one] | > 50 | > 50 | 10 to 50 | – | –
5 | 7-perdeuteroethyl-8-perdeuteroisopropyl-5-trideuteromethyl-2-(3-phenylpyridin-4-yl)-7,8-dihydropteridin-6(5H)-one [Example 146] | < 1 | < 1 | – | – | < 1
6 | CC[C@@H]1C(=O)N(C)c2cnc(-n3ccnc3-c3ccc(F)cn3)nc2N1CCC(F)(F)F [Example 244, (R)-7-ethyl-2-(2-(5-fluoropyridin-2-yl)-1H-imidazol-1-yl)-5-methyl-8-(3,3,3-trifluoropropyl)-7,8-dihydropteridin-6(5H)-one] | > 50 | 10 to 50 | < 1 | – | –
7 | CCC1C(=O)N(C)c2cnc(-n3ccnc3)nc2N1c1cccc(-n2cccn2)c1 (stereo not shown) [Example 336, 8-(3-(1H-pyrazol-1-yl)phenyl)-7-ethyl-2-(1H-imidazol-1-yl)-5-methyl-7,8-dihydropteridin-6(5H)-one] | > 50 | 10 to 50 | 10 to 50 | – | –
8 | CCC12CCCCN1c1nc(-n3ccnc3-c3cccc(F)c3)ncc1N(C)C2=O (racemic) [Example 239, (+/−) 6a-ethyl-2-(2-(3-fluorophenyl)-1H-imidazol-1-yl)-5-methyl-7,8,9,10-tetrahydro-5H-pyrido[2,1-h]pteridin-6(6aH)-one] | 10 to 50 | 1 to 10 | < 1 | – | –
9 | CC[C@@H]1C(=O)N(C)c2cnc(-c3ccncc3NC(=O)OC(C)(C)C)nc2N1C1CCCC1 [Example 92, (R)-tert-butyl 4-(8-cyclopentyl-7-ethyl-5-methyl-6-oxo-5,6,7,8-tetrahydropteridin-2-yl)pyridin-3-ylcarbamate] | > 50 | 10 to 50 | 1 to 10 | – | –
10 | CC[C@@H]1C(=O)N(C)c2cnc(-n3ccnc3-n3ccccc3=O)nc2N1C1CCCC1 [Example 113, (R)-8-cyclopentyl-7-ethyl-5-methyl-2-(2-(2-oxopyridin-1(2H)-yl)-1H-imidazol-1-yl)-7,8-dihydropteridin-6(5H)-one] | 1 to 10 | 1 to 10 | < 1 | – | –
11 | CC[C@@]12CCCCN1c1nc(-n3ccnc3-c3ccccc3)ncc1N(C)C2=O [Example 262, (S)-6a-ethyl-5-methyl-2-(2-phenyl-1H-imidazol-1-yl)-7,8,9,10-tetrahydro-5H-pyrido[2,1-h]pteridin-6(6aH)-one] | 1 to 10 | 1 to 10 | < 1 | more active compound | –
12 | CC[C@@H]1C(=O)N(C)c2cnc(-c3ccncc3NS(=O)(=O)c3ccccc3)nc2N1C1CCCC1 [Example 127, (R)—N-(4-(8-cyclopentyl-7-ethyl-5-methyl-6-oxo-5,6,7,8-tetrahydropteridin-2-yl)pyridin-3-yl)benzenesulfonamide] | > 50 | 10 to 50 | 10 to 50 | – | –
13 | CC[C@@]12CCCN1c1nc(-n3ccnc3-c3cnc4ccccc4c3)ncc1N(C)C2=O [Example 241, (S)-6a-ethyl-5-methyl-2-(2-(quinolin-3-yl)-1H-imidazol-1-yl)-6a,7,8,9-tetrahydropyrrolo[2,1-h]pteridin-6(5H)-one] | > 50 | 10 to 50 | < 1 | – | –
14 | [2H]C([2H])([2H])N1C(=O)[C@@H](C([2H])([2H])C([2H])([2H])[2H])N(C([2H])(C([2H])([2H])[2H])C([2H])([2H])[2H])c2nc(-n3ccnc3-c3cc(F)cc(F)c3)ncc21 [Example 179, (R)-2-(2-(3,5-difluorophenyl)-1H-imidazol-1-yl)-7-perdeuteroethyl-8-perdeuteroisopropyl-5-trideuteromethyl-7,8-dihydropteridin-6(5H)-one] | 1 to 10 | < 1 | < 1 | – | –

More lines, main results first:

Row | IC50 (PLK3) [µM] | IC50 (PLK1) [µM] | IC50 (PLK2; [1]) [µM] | relative PLK2 activity of the enantiomers (PLK2; compared with the opposite enantiomer) | Compound | IC50 (PLK2) [µM]
15 | 1 to 10 | 1 to 10 | < 1 | – | CC[C@@H]1C(=O)N(C)c2cnc(-n3ccnc3-c3cc(Cl)cc(Cl)c3)nc2N1C1CCC1 [Example 198, (R)-8-cyclobutyl-2-(2-(3,5-dichlorophenyl)-1H-imidazol-1-yl)-7-ethyl-5-methyl-7,8-dihydropteridin-6(5H)-one] | –
16 | 1 to 10 | 1 to 10 | < 1 | – | CC[C@@H]1C(=O)N(C)c2cnc(-c3cn[nH]c3-c3nccs3)nc2N1C1CC(F)(F)C1 [Example 353, (R)-8-(3,3-difluorocyclobutyl)-7-ethyl-5-methyl-2-(5-(thiazol-2-yl)-1H-pyrazol-4-yl)-7,8-dihydropteridin-6(5H)-one] | –
17 | 1 to 10 | 1 to 10 | < 1 | – | CC[C@@H]1C(=O)N(C)c2cnc(-n3ccnc3-c3ccc(F)cc3)nc2N1C(C)C1CC1 (stereo partly drawn) [Example 351, (7R)-8-(1-cyclopropylethyl)-7-ethyl-2-(2-(4-fluorophenyl)-1H-imidazol-1-yl)-5-methyl-7,8-dihydropteridin-6(5H)-one] | –
18 | 1 to 10 | 1 to 10 | < 1 | – | CC[C@@H]1C(=O)N(C)c2cnc(-n3ccnc3-c3ccc(F)cc3F)nc2N1CCC(F)(F)F [Example 277, (R)-2-(2-(2,4-difluorophenyl)-1H-imidazol-1-yl)-7-ethyl-5-methyl-8-(3,3,3-trifluoropropyl)-7,8-dihydropteridin-6(5H)-one] | –
19 | < 1 | < 1 | < 1 | – | CC[C@@H]1C(=O)N(C)c2cnc(-n3ccnc3-c3nccs3)nc2N1C1CCCC1 [Example 74, (R)-8-cyclopentyl-7-ethyl-5-methyl-2-(2-(thiazol-2-yl)-1H-imidazol-1-yl)-7,8-dihydropteridin-6(5H)-one] | –
20 | < 1 | < 1 | < 1 | – | CC[C@@H]1C(=O)N(C)c2cnc(-n3ccnc3-c3cccnc3)nc2N1C1CCCC1 [Example 67, (R)-8-cyclopentyl-7-ethyl-5-methyl-2-(2-(pyridin-3-yl)-1H-imidazol-1-yl)-7,8-dihydropteridin-6(5H)-one] | –
